In brackets after ≈: the same amount, converted by molar mass.
Experiments:
[1] = tested on: 14C-acetate incorporation into the steroids which can be precipitated with digitonin (cholesterol biosynthesis); assay: Inhibition of 14C-acetate incorporation into the steroids which can be precipitated with digitonin; type: cell-based; details: for IC50: 14C-acetate incorporation
Source text: I. Measuring the Inhibition of ^14C-acetate incorporation into the steroids which can be precipitated with digitonin: The inhibitory effect was investigated using the method described in J. Lipid. Res. 37, 148-157 [1996] at test concentrations of 10^−8 and 10^−9 mol/l.

Asp. niger ATCC 16404 = assay: Fungistatic activity, series dilution test; type: cell-based; details: Sabouraud broth, 2 to 4 days at 26° C.
Protocol: (§1) V. Determining the Fungistatic Activity
(§2) The fungistatic activity was determined by the series dilution test (microtitre system). Sabouraud broth was used as the nutrient medium. The inoculum amounted to about 10^4 to 10^5 CFU/ml (CFU=colony-forming units); the incubation period was 2 to 4 days at 26° C.
(§3) The lowest concentration which allows no visible growth (minimum inhibitory concentration MIC) was determined.
(§4) The abovementioned compounds B, E, G, I, K, L, N, Q and R were tested. The MIC is given in μg/ml.

[2] = tested on: Cand. albicans ATCC 10231; assay: Fungistatic activity, series dilution test; type: cell-based; details: Sabouraud broth, 2 to 4 days at 26° C.
Protocol: as §1, §2, §3, §4

Pen. notatum CBS 19746 = assay: Fungistatic activity, series dilution test; type: cell-based; details: Sabouraud broth, 2 to 4 days at 26° C.
Protocol: as §1, §2, §3, §4

Rhod. rubra 49 = assay: Fungistatic activity, series dilution test; type: cell-based; details: Sabouraud broth, 2 to 4 days at 26° C.
Protocol: as §1, §2, §3, §4

[3] = tested on: Sacch. carisbergensis ATCC 9080; assay: Fungistatic activity, series dilution test; type: cell-based; details: Sabouraud broth, 2 to 4 days at 26° C.
Protocol: as §1, §2, §3, §4

[4] = tested on: Trich. mentagrophytes ATCC 9129; assay: Fungistatic activity, series dilution test; type: cell-based; details: Sabouraud broth, 2 to 4 days at 26° C.
Protocol: as §1, §2, §3, §4

[5] = target: T1, 2,3-epoxysqualene-lanosterol-cyclase (Rattus norvegicus, UniProt P48450); assay: In-vivo activity in the rat after oral administration: 2,3-epoxysqualene level in the liver
T1 construct: Measuring the in-vivo Activity in the Rat after Oral Administration; from tissue; host or cells: living rat; 2,3-epoxysqualene measured in the liver
T1 sequence (P48450 1-733): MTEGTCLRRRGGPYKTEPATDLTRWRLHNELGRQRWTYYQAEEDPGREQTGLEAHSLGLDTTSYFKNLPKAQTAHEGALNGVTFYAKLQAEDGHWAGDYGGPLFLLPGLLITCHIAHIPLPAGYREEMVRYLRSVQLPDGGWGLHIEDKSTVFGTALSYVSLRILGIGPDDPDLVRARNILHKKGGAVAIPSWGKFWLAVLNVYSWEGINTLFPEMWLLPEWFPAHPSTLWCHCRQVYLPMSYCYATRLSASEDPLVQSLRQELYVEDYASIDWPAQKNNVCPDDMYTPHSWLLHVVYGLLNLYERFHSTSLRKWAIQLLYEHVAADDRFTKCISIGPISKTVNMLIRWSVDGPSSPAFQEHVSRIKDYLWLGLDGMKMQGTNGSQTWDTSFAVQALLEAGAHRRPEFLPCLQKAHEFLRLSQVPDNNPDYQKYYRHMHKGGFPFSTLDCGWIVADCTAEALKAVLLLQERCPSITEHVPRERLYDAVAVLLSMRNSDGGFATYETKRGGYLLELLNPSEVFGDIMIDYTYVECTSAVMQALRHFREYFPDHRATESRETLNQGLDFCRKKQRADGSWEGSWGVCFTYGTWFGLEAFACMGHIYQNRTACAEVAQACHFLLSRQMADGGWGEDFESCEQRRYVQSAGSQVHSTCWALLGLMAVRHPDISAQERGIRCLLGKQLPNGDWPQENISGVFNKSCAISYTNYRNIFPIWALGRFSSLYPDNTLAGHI
Protocol: II. Measuring the in-vivo Activity in the Rat after Oral Administration
Inhibiting the enzyme 2,3-epoxysqualene-lanosterol-cyclase causes an increase in the 2,3-epoxisqualene levels in the liver and plasma. The quantity of 2,3-epoxysqualene formed therefore serves as a direct measurement of the potency on the animal as a whole. The amounts were determined using the method described in J. Lipid. Res. 38, 564-575, [1997] at t=3 or 8 hours after administration of the substance in concentrations of c=0.01, 0.03, 0.1, 0.3 and 1.0 mg/kg. Table 3 which follows gives the results obtained for the abovementioned substances A, B, C, E, G, H, O and R by way of example.
In the control animals there were no measurable 2,3-epoxisqualene levels under these conditions.

[6] = Lipid reduction in the normolipaemic golden hamster; type: in vivo; details: dose 5.87 mg/kg/day, compared with control group
Protocol: III. Lipid Reduction in the Normolipaemic Golden Hamster This was determined using the method described in J. Lipid. Res. 38, 564-575, (1997). At the end of the experiment the total cholesterol, β-lipoprotein-cholesterol and HDL-cholesterol were determined and compared with the values of a control group which were fed without any test substance. The lipid-lowering activity of the abovementioned compounds E, G and I was tested.

[7] = 0.01 mg/kg oral, 3 h after administration
[8] = 0.01 mg/kg oral, 8 h after administration
[9] = 0.03 mg/kg oral, 3 h after administration
[10] = 0.03 mg/kg oral, 8 h after administration
[11] = 0.1 mg/kg oral, 3 h after administration
[12] = 0.1 mg/kg oral, 8 h after administration
[13] = 0.3 mg/kg oral, 3 h after administration
[14] = 0.3 mg/kg oral, 8 h after administration
[15] = 1.0 mg/kg oral, 3 h after administration
[16] = 1.0 mg/kg oral, 8 h after administration

Cc1ccc(OC(=S)N(C)[C@H]2CC[C@H](c3ccc(CN4CCCCC4)cc3)CC2)cc1.Cl [Q, trans-N-Methyl-O-(4-methylphenyl)-N-4-[4-(piperidinomethyl)phenyl]cyclohexylthiocarbamate-hydrochloride]
percentage inhibition of 14C-acetate incorporation ([1]; test concentration 10^−8 mol/l): −79% | percentage inhibition of 14C-acetate incorporation ([1]; test concentration 10^−9 mol/l): −51% | MIC Asp. (Asp. niger ATCC 16404): 128 mg/L | MIC Cand. [2]: 16 mg/L | MIC Pen. (Pen. notatum CBS 19746): 64 mg/L | MIC Rhod. (Rhod. rubra 49): 8 mg/L | MIC Sacc. [3]: 32 mg/L | MIC Trich. [4]: 2 mg/L

CN(C)Cc1ccc([C@H]2CC[C@@H](N(C)C(=S)SCc3ccccc3)CC2)cc1.Cl [F, cis-S-benzyl-N-4-[4-(dimethylaminomethyl)phenyl]-cyclohexyl-N-methyldithiocarbamate-hydrochloride]
percentage inhibition of 14C-acetate incorporation ([1]; test concentration 10^−8 mol/l): −83% | percentage inhibition of 14C-acetate incorporation ([1]; test concentration 10^−9 mol/l): −40%

C=CCN(C)Cc1ccc([C@H]2CC[C@H](N(C)C(=O)Oc3ccc(Cl)cc3)CC2)cc1 [M, trans-O-(4-chlorophenyl)-N-methyl-N-4-[4-(N-methyl-N-allylaminomethyl)phenyl]cyclohexylcarbamate]
percentage inhibition of 14C-acetate incorporation ([1]; test concentration 10^−8 mol/l): −93% | percentage inhibition of 14C-acetate incorporation ([1]; test concentration 10^−9 mol/l): −74%

C#CCN(C)Cc1ccc([C@H]2CC[C@H](N(C)C(=O)Oc3ccc(Cl)cc3)CC2)cc1 [N, trans-O-(4-chlorophenyl)-N-methyl-N-4-[4-(N-methyl-N-propargylaminomethyl)phenyl]cyclohexylcarbamate]
percentage inhibition of 14C-acetate incorporation ([1]; test concentration 10^−8 mol/l): −90% | percentage inhibition of 14C-acetate incorporation ([1]; test concentration 10^−9 mol/l): −75% | MIC Asp. (Asp. niger ATCC 16404): >512 mg/L | MIC Cand. [2]: 8 mg/L (≈ 18.8 µM) | MIC Pen. (Pen. notatum CBS 19746): 8 mg/L (≈ 18.8 µM) | MIC Rhod. (Rhod. rubra 49): 16 mg/L (≈ 37.6 µM) | MIC Sacc. [3]: 64 mg/L (≈ 151 µM) | MIC Trich. [4]: 8 mg/L (≈ 18.8 µM)

Cc1ccc(OC(=S)N(C)[C@H]2CC[C@H](c3ccc(CN(C)C)cc3)CC2)cc1.Cl [P, trans-N-4-[4-(dimethylaminomethyl)phenyl]cyclohexyl-N-methyl-O-(4-methylphenyl)thiocarbamate-hydrochloride]
percentage inhibition of 14C-acetate incorporation ([1]; test concentration 10^−8 mol/l): −83% | percentage inhibition of 14C-acetate incorporation ([1]; test concentration 10^−9 mol/l): −60%

CN(C)Cc1ccc([C@H]2CC[C@H](N(C)C(=O)Sc3ccc(Cl)cc3)CC2)cc1.Cl [H, trans-S-(4-chlorophenyl)-N-4-[4-(dimethylaminomethyl)-phenyl]cyclohexyl-N-methylthiocarbamate-hydrochloride]
IC50 [1]: 0.5 nM | percentage inhibition of 14C-acetate incorporation ([1]; test concentration 10^−8 mol/l): −87% | percentage inhibition of 14C-acetate incorporation ([1]; test concentration 10^−9 mol/l): −65% | 2,3-epoxysqualene concentration in the liver (rat) [5, 7]: 2.9 µg/g | 2,3-epoxysqualene concentration in the liver (rat) [5, 8]: 31.3 µg/g | 2,3-epoxysqualene concentration in the liver (rat) [5, 9]: 25.7 µg/g | 2,3-epoxysqualene concentration in the liver (rat) [5, 10]: 25.3 µg/g | 2,3-epoxysqualene concentration in the liver (rat) [5, 11]: 117.7 µg/g | 2,3-epoxysqualene concentration in the liver (rat) [5, 12]: 202.3 µg/g | 2,3-epoxysqualene concentration in the liver (rat) [5, 13]: 70.3 µg/g | 2,3-epoxysqualene concentration in the liver (rat) [5, 14]: 112.6 µg/g

CN(C)Cc1ccc([C@H]2CC[C@H](N(C)C(=S)Sc3ccc(Cl)cc3)CC2)cc1 [A, trans-S-(4-chlorophenyl)-N-4-[4-(dimethylaminomethyl)-phenyl]cyclohexyl-N-methyldithiocarbamate]
percentage inhibition of 14C-acetate incorporation ([1]; test concentration 10^−8 mol/l): −85% | percentage inhibition of 14C-acetate incorporation ([1]; test concentration 10^−9 mol/l): −39% | 2,3-epoxysqualene concentration in the liver (rat) [5, 7]: 0.0 µg/g | 2,3-epoxysqualene concentration in the liver (rat) [5, 8]: 14.6 µg/g | 2,3-epoxysqualene concentration in the liver (rat) [5, 9]: 11.8 µg/g | 2,3-epoxysqualene concentration in the liver (rat) [5, 10]: 66.0 µg/g | 2,3-epoxysqualene concentration in the liver (rat) [5, 11]: 62.6 µg/g | 2,3-epoxysqualene concentration in the liver (rat) [5, 12]: 312.5 µg/g | 2,3-epoxysqualene concentration in the liver (rat) [5, 15]: 136.5 µg/g | 2,3-epoxysqualene concentration in the liver (rat) [5, 16]: 291.9 µg/g

CN(C)Cc1ccc([C@H]2CC[C@H](N(C)C(=S)SCc3ccc(Cl)cc3)CC2)cc1.Cl [D, trans-S-(4-chlorobenzyl)-N-4-[4-(dimethylaminomethyl)-phenyl]cyclohexyl-N-methyldithiocarbamate-hydrochloride]
percentage inhibition of 14C-acetate incorporation ([1]; test concentration 10^−8 mol/l): −85% | percentage inhibition of 14C-acetate incorporation ([1]; test concentration 10^−9 mol/l): −51%

CN(C)Cc1ccc([C@H]2CC[C@H](N(C)C(=O)c3ccc(Cl)cc3)CC2)cc1 [V, reference compound]
IC50 [1]: 3.8 nM | percentage inhibition of 14C-acetate incorporation ([1]; test concentration 10^−8 mol/l): −59% | percentage inhibition of 14C-acetate incorporation ([1]; test concentration 10^−9 mol/l): −23%

CN(C)Cc1ccc([C@H]2CC[C@H](N(C)C(=S)SCc3ccc(F)cc3)CC2)cc1.Cl [C, trans-S-(4-fluorobenzyl)-N-4-[4-(dimethylaminomethyl)-phenyl]cyclohexyl-N-methyldithiocarbamate-hydrochloride]
percentage inhibition of 14C-acetate incorporation ([1]; test concentration 10^−8 mol/l): −87% | percentage inhibition of 14C-acetate incorporation ([1]; test concentration 10^−9 mol/l): −52% | 2,3-epoxysqualene concentration in the liver (rat) [5, 7]: 0.0 µg/g | 2,3-epoxysqualene concentration in the liver (rat) [5, 8]: 84.8 µg/g | 2,3-epoxysqualene concentration in the liver (rat) [5, 9]: 33.1 µg/g | 2,3-epoxysqualene concentration in the liver (rat) [5, 10]: 57.8 µg/g | 2,3-epoxysqualene concentration in the liver (rat) [5, 11]: 47.0 µg/g | 2,3-epoxysqualene concentration in the liver (rat) [5, 12]: 133.1 µg/g | 2,3-epoxysqualene concentration in the liver (rat) [5, 13]: 77.8 µg/g | 2,3-epoxysqualene concentration in the liver (rat) [5, 14]: 196.5 µg/g | 2,3-epoxysqualene concentration in the liver (rat) [5, 15]: 68.1 µg/g | 2,3-epoxysqualene concentration in the liver (rat) [5, 16]: 243.9 µg/g

Cc1ccc(CC(=O)O[C@H]2CC[C@H](c3ccc(CN(C)C)cc3)CC2)cc1 [W, trans-O-(p-tolylacetyl)-4-(4-dimethylaminomethylphenyl)-cyclohexanol, reference compound]
IC50 [1]: 9.6 nM | inhibition at 0.01 µM ([1]; test concentration 10^−8 mol/l, read-out: percentage inhibition of 14C-acetate incorporation): 72% | inhibition at 0.001 µM ([1]; test concentration 10^−9 mol/l, read-out: percentage inhibition of 14C-acetate incorporation): 21%

Cc1ccc(OC(=O)N(C)[C@H]2CC[C@H](c3ccc(CN(C)C)cc3)CC2)cc1.Cl [O, trans-N-4-[4-(dimethylaminomethyl)phenyl]cyclohexyl-N-methyl-O-(4-methylphenyl)carbamate-hydrochloride]
IC50 [1]: 0.8 nM | percentage inhibition of 14C-acetate incorporation ([1]; test concentration 10^−8 mol/l): −83% | percentage inhibition of 14C-acetate incorporation ([1]; test concentration 10^−9 mol/l): −57% | 2,3-epoxysqualene concentration in the liver (rat) [5, 11]: 53.4 µg/g | 2,3-epoxysqualene concentration in the liver (rat) [5, 12]: 94.3 µg/g | 2,3-epoxysqualene concentration in the liver (rat) [5, 13]: 72.6 µg/g | 2,3-epoxysqualene concentration in the liver (rat) [5, 14]: 113.2 µg/g | 2,3-epoxysqualene concentration in the liver (rat) [5, 15]: 117.9 µg/g | 2,3-epoxysqualene concentration in the liver (rat) [5, 16]: 224.8 µg/g | HDL-cholesterol [6]: −12.7% | Total cholesterol [6]: −17.3% | β-Lipoprotein-cholesterol [6]: −22.5%
